Assay results taken from paper PMC3912631, “Bench to Bed Evidences for Pharmacokinetic and Pharmacodynamic Interactions Involving Oseltamivir and Chinese Medicine” (Evidence-based Complementary and Alternative Medicine : eCAM, 2014).
Like-named read-outs stand apart in the source and are kept apart here.

Columns and labels:
[1] = Human crossover pharmacokinetic interaction study of WM (Tamiflu) alone or with CMF1; assay type: in vivo, human (Chinese male healthy volunteers); conditions: human; for half-life: read-out: T 1/2 (terminal half-life) (converted); for Tmax: read-out: T max
Method: Normal healthy Chinese male subjects aged 20–45 years were recruited in this study. […] The study was conducted using a single-center, randomized, open-labeled, multiple dose (5 days), two-treatment, two-period, two-sequence crossover design. […] Each subject underwent two treatment sessions (periods I and II), and each session consists of 5-day treatment (twice daily for day 1 to day 4, morning dose for day 5). The two treatment sessions were separated by a washout period of 2 weeks. 250 mL water was used for WM (Tamiflu capsule, 75 mg per dose) administration. […] Drinking water was not allowed from 1 h predose to 1 h postdose except that needed for drug dosing. […] All blood and urine collection was taken on day 5 of each treatment session. […] Blood samples were collected from a catheter, which was placed in the forearm vein before dosing. At the specified time, 5 mL of blood was drawn (except for 0 time and at 2 h which was 10 mL each for additional antiviral activity determination) and stored in vacuette lithium heparin tubes (Greiner Bio-One). […] Plasma samples were collected after centrifugation and then stored at −80°C until assay. Urine was also collected (and the volume was recorded) at pre-dose, 0–4, 4–8, and 8–12 h intervals. […] After mixing and centrifugation, the supernatant was loaded in prewashed Oasis MCX cartridge (1 cc, 30 mg, Waters) and the cartridge was rinsed subsequently with 1% formic acid, water, and methanol followed by vacuum dried for 20 min. The analytes were then eluted with 1 mL of 1% ammonia in methanol. The eluting solvent was dried by a vacuum concentrator and the residue was reconstituted with 200 μL of 0.1% formic acid : methanol (1 : 1 v/v) prior to HPLC/MS/MS analysis using an ABI 2000 Q-Trap triple quadrupole mass spectrometer (Applied Biosystems) coupled with PE-200 series micropumps and autosampler (Perkin-Elmer). […] In human study, trough concentration (C trough) was defined as the minimum concentration obtained and was obtained at 12 h post-dose. […] In human studies, the comparison of WM + CMF1 to WM alone treatments was evaluated using a 90% confidence intervals (90% CI) approach (USFDA guideline, Drug Interactions Studies, September 2006). […] The statistical model included terms describing the effects attributable to sequence, subject (nested in sequence), period, and treatment (formulation). […] Difference in the median T max between both treatments was evaluated using Wilcoxon signed-rank test. For comparison of the human antiviral activities, one-way analysis of variance in conjunction with post hoc Turkey's range test was performed.

[2] = cited from earlier work
[3] = geometric mean ratio of (WM + CMF1)/WM
[4] = male, in vivo, 75 mg, day 5, WM alone, n = 14, arithmetic mean ± SD
[5] = male, in vivo, day 5, WM + CMF1, n = 14, arithmetic mean ± SD

Q: Which “lowering of 12 h cumulative amount excreted in urine by co-administration of CMF1” value [1] does the source give for `CCC(CC)O[C@@H]1C=C(C(=O)O)C[C@H](N)[C@H]1NC(C)=O` [OC, oseltamivir carboxylate] here?
A: ~ 14%

Q: And the “12 h Cum. amt. in urine, geometric mean” value ([1]; WM + CMF1, n = 14)?
A: 61224.10 µg

Q: What about the “12 h Cum. amt. in urine, geometric mean” value ([1]; WM alone, n = 14) of the same compound?
A: 71215.61 µg

Q: What about the “time to reach peak maximum in plasma” value ([1]; approximate value) of the same compound?
A: 4 to 5 h

Q: And the “12 h Cum. amt. in urine” value ([1]; day 5, WM + CMF1, n = 14, arithmetic mean ± SD)?
A: 62087 ± 10741 µg

Q: What about the “12 h Cum. amt. in urine” value ([1]; day 5, WM alone, n = 14, arithmetic mean ± SD) of the same compound?
A: 72851 ± 15312 µg

Q: And the “GM Ratio of 12 h Cum. amt. in urine” value [1, 3]?
A: 85.97%

Q: What about the “GM Ratio of AUC0–12 h” value [1, 3] of the same compound?
A: 91.32%

Q: And the “GM Ratio of C max” value [1, 3]?
A: 91.32%

Q: And the “concentration of OC in plasma relative to the respective OA” value ([1]; oral WM)?
A: ~ 10 fold

Q: What about the AUC(0-t) ([1]; male, in vivo, 75 mg, WM alone, n = 14, read-out: AUC0–12 h, geometric mean) of the same compound?
A: 4450 ng·h/mL

Q: And the Cmax ([1]; male, in vivo, 75 mg, WM alone, n = 14, read-out: C max, geometric mean)?
A: 526 ng/mL

Q: And the CL renal ([1]; male, in vivo, 75 mg, approximate value, read-out: renal clearance (converted))?
A: ~267 mL/min

Q: And the concentration at 12 h ([1]; male, in vivo, 75 mg, day 5, WM alone (Tamiflu 75 mg bid), n = 14, arithmetic mean ± SD, read-out: C trough (plasma concentration at 12 h postdose))?
A: 207 ± 67.7 ng/mL

Q: And the AUC(0-t) ([1]; male, in vivo, 75 mg, day 5, WM alone, n = 14, arithmetic mean ± SD, read-out: AUC0–12 h)?
A: 4580 ± 1160 ng·h/mL

Q: And the Cmax ([1]; male, in vivo, 75 mg, day 5, WM alone, n = 14, arithmetic mean ± SD, read-out: C max)?
A: 536 ± 102 ng/mL

Q: And the CL renal ([1]; male, in vivo, 75 mg, day 5, WM alone, n = 14, arithmetic mean ± SD, read-out: Renal clearance (converted))?
A: 272 mL/min

Q: And the AUC(0-t) ([1]; male, in vivo, WM + CMF1, n = 14, read-out: AUC0–12 h, geometric mean)?
A: 4070 ng·h/mL

Q: What about the Cmax ([1]; male, in vivo, WM + CMF1, n = 14, read-out: C max, geometric mean) of the same compound?
A: 481 ng/mL

Q: What about the concentration at 12 h ([1]; male, in vivo, both WM and WM + CMF1 treatments, approximate value, read-out: mean C trough) of the same compound?
A: ~200 ng/mL

Q: What about the concentration at 12 h ([1]; male, in vivo, both WM and WM + CMF1 treatments, read-out: mean C trough, molar equivalent) of the same compound?
A: ~704 nM

Q: And the concentration at 2 h ([1]; male, in vivo, both treatments (WM and WM + CMF1), read-out: 2 h post-dose plasma concentration)?
A: 410 to 436 ng/mL

Q: And the concentration at 12 h ([1]; male, in vivo, day 5, WM + CMF1 (10 g per dose), n = 14, arithmetic mean ± SD, read-out: C trough (plasma concentration at 12 h postdose))?
A: 195 ± 51.2 ng/mL

Q: What about the AUC(0-t) ([1]; male, in vivo, day 5, WM + CMF1, n = 14, arithmetic mean ± SD, read-out: AUC0–12 h) of the same compound?
A: 4140 ± 783 ng·h/mL

Q: What about the Cmax ([1]; male, in vivo, day 5, WM + CMF1, n = 14, arithmetic mean ± SD, read-out: C max) of the same compound?
A: 487 ± 82.7 ng/mL

Q: And the CL renal ([1]; male, in vivo, day 5, WM + CMF1, n = 14, arithmetic mean ± SD, read-out: Renal clearance (converted))?
A: 257 mL/min

Q: What about the half-life [1, 4] of the same compound?
A: 5.16 ± 1.27 h

Q: And the Tmax [1, 4]?
A: 4.21 ± 0.97 h

Q: And the half-life [1, 5]?
A: 5.7 ± 1.35 h

Q: What about the Tmax [1, 5] of the same compound?
A: 3.5 ± 0.94 h

Q: And the “effect of food on bioavailability” value [2]?
A: no significant effect

Q: And the “maximum plasma oseltamivir carboxylate concentration” value ([2]; following 50 mg doses)?
A: about 230 μg/L

Q: And the “absolute oral bioavailability of OC from orally administered OA” value ([2]; oral OA)?
A: 80%

Q: And the half-life ([2]; oral OA)?
A: 6 to 10 h
